2 molecules from paper PMC8476755 (Frontiers in Chemistry, 2021) can be followed below.

Where two headings read alike, the source gives them in different places.

The target in the assay is T1, BGT1 (Homo sapiens, UniProt P48065).
T1 construct: expressed in transfected cells
T1 sequence (P48065 1-614): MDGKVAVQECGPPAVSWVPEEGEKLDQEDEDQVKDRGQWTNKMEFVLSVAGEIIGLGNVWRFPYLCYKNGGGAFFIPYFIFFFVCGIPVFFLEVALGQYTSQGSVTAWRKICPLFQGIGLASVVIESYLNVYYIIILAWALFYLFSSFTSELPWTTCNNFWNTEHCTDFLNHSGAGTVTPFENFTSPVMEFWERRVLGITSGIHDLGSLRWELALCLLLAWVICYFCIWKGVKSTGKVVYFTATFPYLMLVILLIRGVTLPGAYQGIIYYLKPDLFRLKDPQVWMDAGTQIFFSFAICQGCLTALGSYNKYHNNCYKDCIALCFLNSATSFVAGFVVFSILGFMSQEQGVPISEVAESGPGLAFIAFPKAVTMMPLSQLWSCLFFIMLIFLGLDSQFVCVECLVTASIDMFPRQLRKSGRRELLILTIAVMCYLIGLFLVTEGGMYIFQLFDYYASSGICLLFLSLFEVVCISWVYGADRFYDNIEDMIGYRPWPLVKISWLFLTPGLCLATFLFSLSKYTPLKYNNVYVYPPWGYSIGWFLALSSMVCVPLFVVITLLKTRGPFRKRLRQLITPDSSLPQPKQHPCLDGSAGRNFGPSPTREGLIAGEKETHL
Nature of the assay: FLIPR membrane potential (FMP) assay, CHO cells stably expressing BGT1. The following applies: for Inhibitor activity: in the presence of GABA EC50 concentration ([…] µM); for Substrate activity (translocation by BGT1): tested as substrates, without GABA; for Kb: Gaddum-Schild analysis. The class given is cell-based.

Turning to `CN[C@@]12CC[C@H](C(=O)O)[C@@H]1C2` [compound 2], the Inhibitor activity entry is reported as “behaved as inhibitors” and the “Substrate activity (translocation by BGT1)” value was “no increase in fluorescence signals”.

With `N[C@@]12CC[C@H](C(=O)O)[C@@H]1C2` [bicyclo-GABA, (1S,2S,5R)-5-aminobicyclo[3.1.0]hexane-2-carboxylic acid], the Inhibitor activity entry is on record as “behaved as inhibitors” and the “Substrate activity (translocation by BGT1)” value was “no increase in fluorescence signals”. In addition, the Kb (n = 4, read-out: KB) turned out to be 470 nM. Further, the Kb (read-out: pKB (converted)) was 398 nM. Besides, under “according to the FMP data”, the “Preference for BGT1 over α1β2γ2 GABAA receptors” value is listed as 13 times. In addition, the “Schild slope (Gaddum-Schild analysis)” value (co-applied with increasing concentrations of GABA, n = 4) is 1.02.
